Structures can show the parent of a compound that is named as a salt.
Target: hROMK (hKir1.1) (Homo sapiens (Human), UniProt P48048)
Assay: Thallium Flux Assay (ROMK channel functional thallium flux, FLIPR-Tetra)
Format: cell-based
Details: HEK293 cells stably expressing hROMK (hKir1.1); unit not given in Table 4 (IC50 potencies less than 1 μM); read-out: ROMK TI IC50
Description: Cell Culture Conditions—HEK293 cells stably expressing hROMK (hKir1.1) were grown at 37° C. in a 10% CO2 humidified incubator in complete growth media: Dulbecco's Modified Eagle Medium supplemented with non-essential amino acids, Penicillin/Streptomycin/Glutamine, G418 and FBS. At >80% confluency, the media was aspirated from the flask and rinsed with 10 mL calcium/magnesium-free PBS. […] To dislodge the cell, the side of the flask was gently banged with one's hand. The cells completely titrated and then the cells were transferred to 25 mL complete media, centrifuged at 1,500 rpm for 6 min followed by resuspension in complete growth media and determine cell concentration. […] Under ideal growth conditions and appropriate tissue culture practices, this cell line is stable for 40-45 passages.
FluxOR Kit Components (Invitrogen F10017)
• FluxOR™ Reagent (Component A) • FluxOR™ Assay Buffer (Component B)—10× Concentrate • PowerLoad™ Concentrate (Component C)—100× Concentrate • Probenecid (Component D)—Lyophilized sample is kept at −20° C. Water soluble, 100× after solubilization in 1 mL water. […] Store at 4° C. • Thallium sulfate (Tl2SO4) Concentrate (Component G)—50 mM in water. […] Can be stored at room temperature • Stimulant Buffer (prepared at 5× final concentration in 1× FluxOR™Chloride-Free Buffer): 7.5 mM thallium sulfate and 0.75 mM potassium sulfate (to give a final assay concentration of 3 mM Thallium/0.3 mM potassium). Store at 4° C. when not in use. If kept sterile, this solution is good for months.
• 1. Seed HEK-hKir1.1 cells (50 μl at 20,000 cells/well) in 384-well PDL coated Microplates • 2. Allow cells to adhere overnight in humidified 37° C./10% CO2 incubator • 3. Completely remove cell growth media from microplate and replace with 25 μl loading buffer • 4. Incubate Microplate at room temperature, protected form light, for 90 min • 5. Remove loading buffer and replace with 25 μl 1× Assay Buffer±test compound. • 6. Incubate microplate at room temperature, protected from light, for 30 min • 7. […] Excitation=400 nm, Emission=460 & 580 nm. Collect data for ˜10 min.
Data Calculation—The fluorescence intensity of wells containing 3 μM of a standard control ROMK inhibitor of the present invention was used to define the ROMK-sensitive component of thallium flux. Fluorescence in the presence of test compounds was normalized to control values to provide % fluorescence change.

Sequence of hROMK (hKir1.1) (P48048 whole entry): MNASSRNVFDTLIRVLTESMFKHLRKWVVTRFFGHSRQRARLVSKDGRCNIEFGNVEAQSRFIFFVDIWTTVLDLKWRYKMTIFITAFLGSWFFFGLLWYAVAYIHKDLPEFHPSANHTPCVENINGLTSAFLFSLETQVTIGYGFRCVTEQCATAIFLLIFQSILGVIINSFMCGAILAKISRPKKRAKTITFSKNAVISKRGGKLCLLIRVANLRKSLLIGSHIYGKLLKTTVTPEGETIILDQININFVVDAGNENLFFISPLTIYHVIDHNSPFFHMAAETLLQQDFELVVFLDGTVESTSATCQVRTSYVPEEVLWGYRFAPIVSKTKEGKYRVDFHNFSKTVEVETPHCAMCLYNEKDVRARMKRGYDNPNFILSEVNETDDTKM

Row | SMILES | IC50 [nM]
1 | Cc1nc(N2CC3(CCN(C[C@H](O)c4ccc5c(c4C)COC5=O)CC3)CC2=O)ccc1-n1cnnn1 [Example 73, 8-[(2R)-2-Hydroxy-2-(4-methyl-1-oxo-1,3-dihydro-2-benzofuran-5-yl)ethyl]-2-[6-methyl-5-(1H-tetrazol-1-yl)pyridin-2-yl]-2,8-diazaspiro[4.5]decan-3-one hydrochloride] | 359
2 | Cc1c([C@@H](O)CN2CCC3(CC2)CC(=O)N(c2nnc(S(C)(=O)=O)s2)C3)ccc2c1COC2=O [Example 71, 8-[(2R)-2-Hydroxy-2-(4-methyl-1-oxo-1,3-dihydro-2-benzofuran-5-yl)ethyl]-2-[5-(methylsulfonyl)-1,3,4-thiadiazol-2-yl]-2,8-diazaspiro[4.5]decan-3-one hydrochloride] | 142
3 | Cc1c([C@@H](O)CN2CCC3(CCCN(c4ccc(S(C)(=O)=O)cn4)C3)CC2)ccc2c1COC2=O [Example 61, (R)-5-(1-hydroxy-2-(2-(5-(methylsulfonyl)pyridin-2-yl)-2,9-diazaspiro[5.5]undecan-9-yl)ethyl)-4-methylisobenzofuran-1(3H)-one] | 56
4 | COc1cc(C#N)ccc1N1CCC2(CCN(C[C@H](O)c3ccc4c(c3C)COC4=O)CC2)C1 [Example 86] | 50.4
5 | Cc1c([C@@H](O)CN2CCC3(CC2)CCN(c2ncc(S(C)(=O)=O)s2)C3)ccc2c1COC2=O [Example 38, (R)-5-(1-Hydroxy-2-(2-(5-(methylsulfonyl)thiazol-2-yl)-2,8-diazaspiro[4.5]decan-8-yl)ethyl)-4-methylisobenzofuran-1(3H)-one] | 60
6 | Cc1c([C@@H](O)CN2CCC3(CC2)CCN(c2cc(C#N)ccn2)C3)ccc2c1COC2=O [Example 13, (R)-2-(8-(2-Hydroxy-2-(4-methyl-1-oxo-1,3-dihydroisobenzofuran-5-yl)ethyl)-2,8-diazaspiro[4.5]decan-2-yl)isonicotinonitrile] | 26
7 | Cc1c([C@@H](O)CN2CCC3(CC2)CN(c2ccc(C#N)cn2)C3)ccc2c1COC2=O [Example 45, (R)-6-(7-(2-Hydroxy-2-(4-methyl-1-oxo-1,3-dihydroisobenzofuran-5-yl)ethyl)-2,7-diazaspiro[3.5]nonan-2-yl)nicotinonitrile] | 104
8 | Cc1c([C@@H](O)CN2CCC3(CC2)CCN(c2ccc(S(C)(=O)=O)cc2)C3=O)ccc2c1COC2=O [Example 75, 8-[(2R)-2Hydroxy-2-(4-methyl-1-oxo-1,3-dihydro-2-benzofuran-5-yl)ethyl]-2-[4-(methylsulfonyl)phenyl]-2,8-diazaspiro[4.5]decan-1-one hydrochloride] | 85.2
9 | Cc1c([C@@H](O)CN2CCC3(CC2)CCN(c2ccc(S(C)(=O)=O)cn2)C3)ccc2c1COC2=O [Example 22, (R)-5-(1-Hydroxy-2-(2-(5-(methylsulfonyl)pyridin-2-yl)-2,8-diazaspiro[4.5]decan-8-yl)ethyl)-4-methylisobenzofuran-1(3H)-one] | 41.1
10 | Cc1c([C@@H](O)CN2CCC3(CC2)CCN(c2ccc(S(C)(=O)=O)nn2)C3)ccc2c1COC2=O [Example 32, (R)-5-(1-Hydroxy-2-(2-(6-(methylsulfonyl)pyridazin-3-yl)-2,8-diazaspiro[4.5]decan-8-yl)ethyl)-4-methylisobenzofuran-1(3H)-one] | 177
11 | CCS(=O)(=O)c1cnc(N2CC3(CCN(C[C@H](O)c4ccc5c(c4C)COC5=O)CC3)OC2=O)cn1 [Example 93, (R)-3-(5-(Ethylsulfonyl)pyrazin-2-yl)-8-(2-hydroxy-2-(4-methyl-1-oxo-1,3-dihydroisobenzofuran-5-yl)ethyl)-1-oxa-3,8-diazaspiro[4.5]decan-2-one] | 148
12 | Cc1c([C@@H](O)CN2CCC3(CCCN(c4ncc(-n5cnnn5)cn4)C3)CC2)ccc2c1COC2=O [Example 43, (R)-5-(2-(2-(5-(1H-tetrazol-1-yl)pyrimidin-2-yl)-2,9-diazaspiro[5.5]undecan-9-yl)-1-hydroxyethyl)-4-methylisobenzofuran-1(3H)-one] | 37
13 | Cc1c([C@@H](O)CN2CCC3(CC2)CC(=O)N(c2ccc(C#N)cc2)C3)ccc2c1COC2=O [Example 14, (R)-4-(8-(2-Hydroxy-2-(4-methyl-1-oxo-1,3-dihydroisobenzofuran-5-yl)ethyl)-3-oxo-2,8-diazaspiro[4.5]decan-2-yl)benzonitrile] | 15
14 | COc1cc(N2CCC3(CCN(C[C@H](O)c4ccc5c(c4C)COC5=O)CC3)C2=O)ncc1C#N [Example 58, (R)-6-(8-(2-Hydroxy-2-(4-methyl-1-oxo-1,3-dihydroisobenzofuran-5-yl)ethyl)-1-oxo-2,8-diazaspiro[4.5]decan-2-yl)-4-methoxynicotinonitrile] | 49.4
15 | Cc1c([C@@H](N)CN2CCC3(CC2)CCN(c2ccc(C#N)cn2)C3)ccc2c1COC2=O [Example 79, (R)-6-(8-(2-amino-2-(4-methyl-1-oxo-1,3-dihydroisobenzofuran-5-yl)ethyl)-2,8-diazaspiro[4.5]decan-2-yl)nicotinonitrile] | 14.1
16 | Cc1cc(C#N)cnc1N1CCC2(CCN(CC(O)c3ccc4c(c3C)COC4=O)CC2)CC1 (stereo not drawn) [Example 108] | 255
17 | Cc1c(C(O)CN2CCC3(CC2)CCN(c2ncccc2C#N)CC3)ccc2c1COC2=O (stereo not drawn) [Example 107] | 180
18 | Cc1nc(N2CCC3(CCN(CC(O)c4ccc5c(c4C)COC5=O)CC3)CC2)ccc1C#N (stereo not drawn) [Example 114] | 136
19 | Cc1c([C@@H](O)CN2CCC3(CCN(c4cnc(S(C)(=O)=O)cn4)CC3)C2)ccc2c1COC2=O [Example 65, 5-[(1R)-1-Hydroxy-2-{8-[5-(methylsulfonyl)pyrazin-2-yl]-2,8-diazaspiro[4.5]dec-2-yl}ethyl]-4-methyl-2-benzofuran-1(3H)-one hydrochloride] | 99.8
20 | Cc1cc(N2CCC3(CCN(C[C@H](O)c4ccc5c(c4C)COC5=O)CC3)C2)cnc1C#N [Example 81] | 10.1
21 | Cc1c([C@@H](O)CN2CCC3(CC2)CCN(c2ncc(S(C)(=O)=O)cn2)C3)ccc2c1COC2=O [Example 41, (R)-5-(1-Hydroxy-2-(2-(5-(methylsulfonyl)pyrimidin-2-yl)-2,8-diazaspiro[4.5]decan-8-yl)ethyl)-4-methylisobenzofuran-1(3H)-one] | 101
22 | Cc1c([C@@H](O)CN2CCC3(CC2)CN(c2ccc(S(C)(=O)=O)nc2)C3)ccc2c1COC2=O [Example 46, (R)-5-(1-Hydroxy-2-(2-(6-(methylsulfonyl)pyridin-3-yl)-2,7-diazaspiro[3.5]nonan-7-yl)ethyl)-4-methylisobenzofuran-1(3H)-one] | 256
23 | COc1cc(N2CCC3(CCN(C[C@H](O)c4ccc5c(c4C)COC5=O)CC3)C2)ncc1C#N [Example 7, (R)-6-(8-(2-Hydroxy-2-(4-methyl-1-oxo-1,3-dihydroisobenzofuran-5-yl)ethyl)-2,8-diazaspiro[4.5]decan-2-yl)-4-methoxynicotinonitrile] | 21.5
24 | Cc1c([C@@H](O)CN2CCC3(CC2)CN(c2cnc(S(C)(=O)=O)cn2)C(=O)O3)ccc2c1COC2=O [Example 92, (R)-8-(2-Hydroxy-2-(4-methyl-1-oxo-1,3-dihydroisobenzofuran-5-yl)ethyl)-3-(5-(methylsulfonyl)pyrazin-2-yl)-1-oxa-3,8-diazaspiro[4.5]decan-2-one] | 125
